US11407740B2 (priority 2018, dated 2022)
Converted amounts (≈) assume the structure as drawn.

System: E. coli
Test: Bacterial susceptibility testing, MIC by broth microdilution (CLSI)
Settings: Escherichia coli, read-out: E. coli MIC, broth microdilution, 35° C., 18-24 h

SMILES	MIC
O=c1[nH]cnc(CC(CO)c2ccc(C#Cc3ccc(CN4CCNCC4)cc3)cc2)c1O (centres unmarked) [Compound 54]	1 to 8 µg/mL (≈ 2.25 to 18 µM)
COC1CN(Cc2ccc(C#Cc3ccc(C(CNC4CC4)Cc4nc[nH]c(=O)c4O)c(F)c3)cc2)C1 (centres unmarked) [Compound 225]	< 1 µg/mL
O=c1[nH]cnc(CC(CN2CC(O)C2)c2ccc(C#Cc3ccc(CN4CCOCC4)cc3)cc2F)c1O (centres unmarked) [Compound 231]	< 1 µg/mL
O=C(CO)NC1CCN(Cc2ccc(C#Cc3ccc(C(CO)Cc4nc[nH]c(=O)c4O)cc3)cc2)CC1 (centres unmarked) [Compound 240]	< 1 µg/mL
COC1CN(Cc2ccc(C#Cc3ccc(C(CNC(CO)CF)Cc4nc[nH]c(=O)c4O)cc3)cc2)C1 (centres unmarked) [Compound 244]	1 to 8 µg/mL (≈ 1.92 to 15.4 µM)
COC1CN(Cc2ccc(C#Cc3ccc(C(CNCC(F)CO)Cc4nc[nH]c(=O)c4O)cc3)cc2)C1 (centres unmarked) [Compound 249]	1 to 8 µg/mL (≈ 1.92 to 15.4 µM)
NCC1CN(Cc2ccc(C#Cc3ccc(C(CO)Cc4nc[nH]c(=O)c4O)cc3)cc2)CCO1 (centres unmarked) [Compound 258]	1 to 8 µg/mL (≈ 2.11 to 16.9 µM)
O=c1[nH]cnc(CC(CO)c2ccc(C#Cc3ccc(CNC4CCNCC4)cc3)cc2)c1O (centres unmarked) [Compound 259]	1 to 8 µg/mL (≈ 2.18 to 17.4 µM)
NCC(=O)N1CCC(C#Cc2ccc(C(CO)Cc3nc[nH]c(=O)c3O)cc2)CC1 (centres unmarked) [Compound 263]	> 32 µg/mL
O=C(CO)N1CCC(C#Cc2ccc(C(CO)Cc3nc[nH]c(=O)c3O)cc2)CC1 (centres unmarked) [Compound 264]	> 32 µg/mL
CS(=O)(=O)NC(Cc1nc[nH]c(=O)c1O)c1ccc(C#Cc2ccc(CN3CCOCC3)cc2)cc1 (centres unmarked) [Compound 289]	< 1 µg/mL
CS(=O)(=O)N[C@H](Cc1nc[nH]c(=O)c1O)c1ccc(C#Cc2ccc(CN3CCNC[C@H]3CO)cc2)cc1 [Compound 291]	< 1 µg/mL
CC(C)(CF)NCC(Cc1nc[nH]c(=O)c1O)c1ccc(C#Cc2ccc(CN3CCOCC3)cc2)cc1 (centres unmarked) [Compound 301]	< 1 µg/mL
Cc1nccn1CC(Cc1nc[nH]c(=O)c1O)c1ccc(C#Cc2ccc(CN3CCOCC3)cc2)cc1 (centres unmarked) [Compound 305]	< 1 µg/mL

Same assay, conditions: broth microdilution, 35° C., 18-24 h

SMILES	E. coli MIC
O=c1[nH]cnc(CC(CO)c2ccc(C#Cc3ccc(CN4CCNCC4)cc3)cc2)c1O (centres unmarked) [Compound 55]	B (B: >1 μg/mL to ≤8.0 μg/mL)
COC1CN(Cc2ccc(C#Cc3ccc(C(CNC4CC4)Cc4nc[nH]c(=O)c4O)cc3)cc2)C1 (centres unmarked) [Compound 224]	B (B: >1 μg/mL to ≤8.0 μg/mL)
O=C(CO)NC1CCN(Cc2ccc(C#Cc3ccc(C(CO)Cc4nc[nH]c(=O)c4O)cc3)cc2)CC1 (centres unmarked) [Compound 241]	B (B: >1 μg/mL to ≤8.0 μg/mL)
O=C(CO)NC1CCN(Cc2ccc(C#Cc3ccc(C(CO)Cc4nc[nH]c(=O)c4O)cc3)cc2)CC1 (centres unmarked) [Compound 242]	A (A: ≤1 μg/mL)

System: K. pneumoniae
Test: as above
Assay type: cell-based
Settings: 35° C., 18-24 h
Method: Minimal inhibitory concentrations (MIC) were determined by the broth microdilution method in accordance with the Clinical and Laboratory Standards Institute (CLSI) guidelines. In brief, organism suspensions were adjusted to a 0.5 McFarland standard to yield a final inoculum between 3×10^3 and 7×10^5 colony-forming units (CFU)/mL. Drug dilutions and inocula were made in sterile, cation adjusted Mueller-Hinton Broth (Beckton Dickinson). An inoculum volume of 100 μL was added to wells containing 100 μL of broth with 2-fold serial dilutions of drug.

SMILES	K. pneumoniae MIC
O=c1[nH]cnc(CC(CO)c2ccc(C#Cc3ccc(CN4CCNCC4)cc3)cc2)c1O (centres unmarked) [Compound 54]	B (B: >1 μg/mL to ≤8.0 μg/mL)
O=c1[nH]cnc(CC(CO)c2ccc(C#Cc3ccc(CN4CCNCC4)cc3)cc2)c1O (centres unmarked) [Compound 55]	D (D: >32 μg/mL)
